These results are taken from PMC5786060, “Discovery of new molecular entities able to strongly interfere with Hsp90 C-terminal domain” (Scientific Reports, 2018).

In experiment [1] the test system is Jurkat (human leukemic T lymphocyte). The experiment can be described thus: Anti-proliferation MTT assay, Jurkat cells. It is filed as cell-based. As to conditions: for IC50: Homo sapiens. As to the method:
(§1) Jurkat and U937 (2 × 10^4 /well) cells were seeded in triplicate in 96 well−plates and incubated for the 24 h or 48 h in the absence or presence of different concentrations of compounds 1, 4–5, 7–15, 21–22, 26 (concentration between 10 µM to 100 µM) or Novobiocin (concentration between 50 µM to 500 µM). Stock solutions of compounds (100 mM in DMSO) were diluted just before addition to the sterile culture medium and the final concentration of DMSO was 0.15% (v/v).
(§2) The number of viable cells was determined by using a […] (MTT, Sigma-Aldrich) conversion assay, according to the method described by Terracciano et al. 2016[27],[28]. After the indicated treatment, the cells were incubated for additional 3 h at 37 °C, with 25 µL of MTT (5 mg/mL in PBS). The formazan crystals thus formed were dissolved in 100 μl of buffer containing 50% (v/v) N,N-dimethylformamide, 20% SDS (pH 4.5). The absorbance was read at 570 nm using an Absorbance Microplate Reader (Titertek multiskan MCC7340, LabSystems, Vienna, VA, USA) equipped with a 620 nm filter. The cell population growth inhibition was also tested by cytometric counting (trypan blu exclusion). IC50 values were calculated from cell viability dose−response curves and defined as the concentration resulting in 50% inhibition of cell survival, compared to control cells treated with DMSO (see Supplementary Material Tables S2 and S3).

The next experiment concerns the target T1, recombinant human Hsp90α (Homo sapiens, UniProt P07900).
T1 construct: purchased Abcam
The experiment can be described thus: SPR binding to immobilized recombinant Hsp90α. As to conditions: Biacore 3000, immobilized full length Hsp90α, 25 °C, 1:1 Langmuir model, read-out: KD (nM) ± SD. As to the method:
Recombinant human Hsp90α was purchased from Abcam (Abcam, Cambridge, UK). […] SPR analyses were carried out according to our previously published data[25]–[28],[32],[50]. Surface Plasmon Resonance Spectroscopy (SPR) analyses were performed to determine binding of various molecules to full length Hsp90α using a Biacore 3000 optical biosensor equipped with research-grade CM5 sensor chips (GE Healthcare). Hsp90α was coupled to the surface of a CM5 sensor chip using standard amine-coupling protocols, according to the manufacturer’s instructions.
The protein (100 µg mL^−1 in 10 mM CH3COONa, pH 5.0) was immobilized on individual sensor chip surfaces at a flow rate of 5 µL min^−1 to obtain densities of 8–12 kRU. For the experiments a recombinant Hsp90α surface, a BSA surface and one unmodified reference surface were prepared for simultaneous analyses. […] For each molecule a six-point concentration series were set up, spanning […], and for each sample the complete binding study was performed using triplicate aliquots. Changes in mass, due to the binding response, were recorded as resonance units (RU). To obtain the dissociation constant (KD) (Table 1), these responses were fit to a 1:1 Langmuir binding model by nonlinear regression using the BiaEvaluation software program provided by GE Healthcare. Simple interactions were suitably fitted to a single-site bimolecular interaction model (A + B = AB), yielding a single KD. (Table 1). SPR experiments were performed at 25 °C, using a flow rate of 50 µL min^−1, with 60 s monitoring of association and 300 s monitoring of dissociation.

Experiment [2] relates to U937 (human monocytic cell line from histiocytic lymphoma). The experiment can be described thus: Anti-proliferation MTT assay, U937 cells. Format: cell-based. Particulars: for IC50: Homo sapiens. The protocol:
as §1, §2

[3] abbreviates: U-937, 24 h, read-out: IC50 (µM) 24h.
Where [4] appears, read: U-937, 48 h, read-out: IC50 (µM) 48h.

Read-outs that look alike come from different tables or passages of the source. A value given as a limit tells only on which side of the number the result lay.

In the case of `NC(=O)c1ccccc1NC(=O)CCCCCN1C(=O)c2ccccc2C1=O` [Compound 1], the IC50 in experiment [1] (24 h, read-out: IC50 (µM) 24h) is more than 100 µM; in experiment [1] (48 h, read-out: IC50 (µM) 48h), more than 100 µM; in experiment [2] (setting [3]) it was more than 100 µM; in experiment [2] (setting [4]) it was more than 100 µM. In addition, the Kd on recombinant human Hsp90α is 1.5 ± 0.5 nM.

As to `O=C1c2ccccc2C(=O)N1CCSc1ncnc2scc(-c3ccc(Cl)cc3)c12` [Compound 4], the IC50 in experiment [1] (24 h, read-out: IC50 (µM) 24h) was more than 100 µM; in experiment [1] (48 h, read-out: IC50 (µM) 48h) it was more than 100 µM; in experiment [2] (setting [3]), more than 100 µM; in experiment [2] (setting [4]), more than 100 µM. At recombinant human Hsp90α, the Kd turned out to be 3.2 ± 1.1 nM.

As for `Cc1cc(C)c2c(C)cc3nnc(SCCCN4C(=O)c5ccccc5C4=O)n3c2c1` [Compound 5], the IC50 in experiment [1] (24 h, read-out: IC50 (µM) 24h) came out at 100 µM; in experiment [1] (48 h, read-out: IC50 (µM) 48h), 98.3 µM; in experiment [2] (setting [3]), 91.2 µM; in experiment [2] (setting [4]), 91.2 µM. Also, on recombinant human Hsp90α, the Kd was found to be 14.7 ± 9.4 nM.

As for `O=C(CNc1ccc(F)cc1)Nc1ncc(Cc2ccccc2F)s1` [Compound 8], the “IC50 (µM) 24h” value in experiment [1] (24 h) and in experiment [2] was “not active” in each case. Besides, the “IC50 (µM) 48h” value in experiment [1] (48 h) and in experiment [2] was “not active” in each case. Besides, the Kd at recombinant human Hsp90α was 2.4 ± 0.6 nM.

Consider `COc1ccc(NCC(=O)Nc2ncc(Cc3cccc4ccccc34)s2)cc1` [Compound 9], for which the IC50 in experiment [1] (24 h, read-out: IC50 (µM) 24h) stood at 90.2 µM; in experiment [1] (48 h, read-out: IC50 (µM) 48h), 85.5 µM; in experiment [2] (setting [3]), 97.3 µM; in experiment [2] (setting [4]), 95.3 µM. Further, the Kd on recombinant human Hsp90α is 20.9 ± 9.5 nM.

As to `O=C(CCCCCn1c(=O)[nH]c2ccccc2c1=O)CCCn1ccnc1` [Compound 11], the IC50 turned out to be 48.2 µM in experiment [1] (24 h, read-out: IC50 (µM) 24h); 42.5 µM in experiment [1] (48 h, read-out: IC50 (µM) 48h); 90.1 µM in experiment [2] (setting [3]); 90.3 µM in experiment [2] (setting [4]). Besides, the dissociation constant (Kd) at recombinant human Hsp90α was determined as 79.3 ± 7.2 nM.

As to `O=C(CCCCCn1c(=O)[nH]c2ccccc2c1=O)NCCN1CCOCC1` [Compound 12], the IC50 was more than 100 µM in experiment [1] (24 h, read-out: IC50 (µM) 24h); more than 100 µM in experiment [1] (48 h, read-out: IC50 (µM) 48h); more than 100 µM in experiment [2] (setting [3]); more than 100 µM in experiment [2] (setting [4]). Further, the Kd on recombinant human Hsp90α came out at 95.1 ± 5.7 nM.

Take `COC(=O)c1ccc(NC(=O)CCCCCn2c(=O)[nH]c3ccccc3c2=O)cc1` [Compound 13]: the IC50 in experiment [1] (24 h, read-out: IC50 (µM) 24h) was 56.8 µM; in experiment [1] (48 h, read-out: IC50 (µM) 48h), 54 µM; in experiment [2] (setting [3]), 98.3 µM; in experiment [2] (setting [4]) it was 97 µM. Further, the Kd at recombinant human Hsp90α was found to be 300 ± 19.3 nM.

Consider `NC(=O)c1ccc(NC(=O)CCCCCn2c(=O)[nH]c3ccccc3c2=O)cc1` [Compound 14], for which the IC50 is more than 100 µM in experiment [1] (24 h, read-out: IC50 (µM) 24h); more than 100 µM in experiment [1] (48 h, read-out: IC50 (µM) 48h); more than 100 µM in experiment [2] (setting [3]); more than 100 µM in experiment [2] (setting [4]). Besides, on recombinant human Hsp90α, the Kd is 260 ± 8.4 nM.

Consider `O=C1CCS(=O)(=O)N1c1ccc(S(=O)(=O)NCc2cccc3c2OCO3)cc1` [Compound 15], for which the “IC50 (µM) 24h” value in experiment [1] (24 h) and in experiment [2] was “not active” throughout. Besides, the “IC50 (µM) 48h” value in experiment [1] (48 h) and in experiment [2] was “not active” throughout. At recombinant human Hsp90α, the Kd is 4.8 ± 2.9 nM.

With `COC(=O)c1ccc(Oc2c[nH]nc2-c2ccc(OC)cc2O)cc1` [Compound 20], at recombinant human Hsp90α, the Kd turned out to be 14.2 ± 4.9 nM.

As to `COc1cc(/C=N/NC(=O)NC(=O)c2ccccc2Cl)ccc1O` [Compound 21], the “IC50 (µM) 24h” value in experiment [1] (24 h) and in experiment [2] was “not active” each time. Further, the “IC50 (µM) 48h” value in experiment [1] (48 h) and in experiment [2] was “not active” in each case. Moreover, the Kd on recombinant human Hsp90α came to 13.2 ± 2.3 nM.

For `CN(CCc1ccncc1)C(=O)c1ccc(N2C(=O)CCS2(=O)=O)cc1` [Compound 22], the “IC50 (µM) 24h” value in experiment [1] (24 h) and in experiment [2] was “not active” throughout. The “IC50 (µM) 48h” value in experiment [1] (48 h) and in experiment [2] was “not active” each time. Also, at recombinant human Hsp90α, the Kd came to 4.1 ± 2.6 nM.

In the case of `O=C(c1ccc2c(c1)OCO2)N1CCC(c2nc3ccccc3[nH]2)CC1` [Compound 26], the IC50 in experiment [1] (24 h, read-out: IC50 (µM) 24h) was more than 100 µM; in experiment [1] (48 h, read-out: IC50 (µM) 48h), more than 100 µM; in experiment [2] (setting [3]), more than 100 µM; in experiment [2] (setting [4]), more than 100 µM. In addition, at recombinant human Hsp90α, the Kd was 25.7 ± 8.4 nM.
